In patent publication US9242970B2 (ACTELION PHARMACEUTICALS LTD., priority 2010, dated 2016):

The molecules below were run against human orexin-1 receptor (Homo sapiens (Human), UniProt O43613) (assay: In vitro assay: intracellular calcium measurements (FLIPR), antagonistic activity). Conditions: CHO cells, 3 nM orexin-A, compound incubation 120 min; marked values are geometric means of n = 2-6; read-out: IC50 OX1.
Format: cell-based
Procedure: In Vitro Assay: Intracellular Calcium Measurements:
Chinese hamster ovary (CHO) cells expressing the human orexin-1 receptor and the human orexin-2 receptor, respectively, are grown in culture medium (Ham F-12 with L-Glutamine) containing 300 µg/ml G418, 100 U/ml penicillin, 100 µg/ml streptomycin and 10% heat inactivated fetal calf serum (FCS). The cells are seeded at 20,000 cells/well into 384-well black clear bottom sterile plates (Greiner). The seeded plates are incubated overnight at 37° C. in 5% CO2.
Fluorescence is measured for each well at 1 second intervals, and the height of each fluorescence peak is compared to the height of the fluorescence peak induced by 3 nM orexin-A with vehicle in place of antagonist. […] Optimized conditions were achieved by adjustment of pipetting speed and cell splitting regime. The calculated IC50 values may fluctuate depending on the daily cellular assay performance. Fluctuations of this kind are known to those skilled in the art.

Sequence of human orexin-1 receptor (O43613 whole entry): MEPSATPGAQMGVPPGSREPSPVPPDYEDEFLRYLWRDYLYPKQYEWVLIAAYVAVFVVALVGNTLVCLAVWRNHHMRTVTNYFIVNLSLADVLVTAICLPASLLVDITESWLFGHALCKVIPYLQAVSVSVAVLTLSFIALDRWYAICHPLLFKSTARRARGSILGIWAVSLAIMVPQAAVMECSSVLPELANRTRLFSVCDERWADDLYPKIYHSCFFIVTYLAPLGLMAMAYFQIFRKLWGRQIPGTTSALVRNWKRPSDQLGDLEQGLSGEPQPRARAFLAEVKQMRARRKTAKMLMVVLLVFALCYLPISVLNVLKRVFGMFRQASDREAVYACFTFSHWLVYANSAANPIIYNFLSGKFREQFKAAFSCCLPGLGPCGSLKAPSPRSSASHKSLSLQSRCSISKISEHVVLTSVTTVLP

| SMILES | IC50 |
| --- | --- |
| COc1cccc(F)c1[C@@H]1C[C@@H](O)C(=O)N1Cc1ccc(OC(F)(F)F)cc1 (racemic) [Example 293, rac-(3R*,5S*)-5-(2-fluoro-6-methoxyphenyl)-3-hydroxy-1-(4-(trifluoromethoxy)benzyl)pyrrolidin-2-one] | 2750 nM |
| COc1cccc(Cl)c1[C@@H]1C[C@@H](O)C(=O)N1Cc1ccc(OC(F)(F)F)cc1 (racemic) [Example 294, rac-(3R*,5S*)-5-(2-chloro-6-methoxyphenyl)-3-hydroxy-1-(4-(trifluoromethoxy)benzyl)pyrrolidin-2-one] | 2440 nM |
| O=C1[C@@H](Cl)C[C@@H](c2cccc3c2OCCO3)N1Cc1ccc(OC(F)(F)F)cc1 (racemic) [Example 307, rac-(3S*,5S*)-3-chloro-5-(2,3-dihydrobenzo[b][1,4]dioxin-5-yl)-1-(4-(trifluoromethoxy)benzyl)pyrrolidin-2-one] | 563 nM |
| COc1ccc2ccccc2c1[C@@H]1C[C@H](F)C(=O)N1Cc1ccc(OC(F)(F)F)cc1 (racemic) [Example 315, rac-(3S*,5S*)-3-fluoro-5-(2-methoxynaphthalen-1-yl)-1-(4-(trifluoromethoxy)benzyl)pyrrolidin-2-one] | 1200 nM |
| COc1c(F)ccc(F)c1[C@@H]1C[C@@H](Cl)C(=O)N1Cc1ccc(OC(F)(F)F)cc1 (racemic) [Example 317, rac-(3R*,5S*)-3-chloro-5-(3,6-difluoro-2-methoxyphenyl)-1-(4-(trifluoromethoxy)benzyl)pyrrolidin-2-one] | 1070 nM |
| COc1c(F)ccc(F)c1[C@@H]1C[C@H](Cl)C(=O)N1Cc1ccc(OC(F)(F)F)cc1 (racemic) [Example 320, rac-(3S*,5S*)-3-chloro-5-(3,6-difluoro-2-methoxyphenyl)-1-(4-(trifluoromethoxy)benzyl)pyrrolidin-2-one] | 1050 nM |
| O=C1[C@H](Cl)C[C@@H](c2cccc3c2OCCO3)N1Cc1ccc(OC(F)(F)F)cc1 (racemic) [Example 322, rac-(3R*,5S*)-3-chloro-5-(2,3-dihydrobenzo[b][1,4]dioxin-5-yl)-1-(4-(trifluoromethoxy)benzyl)pyrrolidin-2-one] | 1080 nM |
| COc1cccc(C)c1[C@@H]1C[C@H](F)C(=O)N1Cc1ccc(OC(F)(F)F)cc1 (racemic) [Example 325, rac-(3S*,5S*)-3-fluoro-5-(2-methoxy-6-methylphenyl)-1-(4-(trifluoromethoxy)benzyl)pyrrolidin-2-one] | 1380 nM |
| CCOc1c(F)cccc1[C@@H]1C[C@@H](Cl)C(=O)N1Cc1ccc(OC(F)(F)F)cc1 (racemic) [Example 327, rac-(3R*,5S*)-3-chloro-5-(2-ethoxy-3-fluorophenyl)-1-(4-(trifluoromethoxy)benzyl)pyrrolidin-2-one] | 1060 nM |
| COc1ccc(F)c(OC)c1[C@@H]1C[C@@H](Cl)C(=O)N1Cc1ccc(OC(F)(F)F)cc1 (racemic) [Example 328, rac-(3R*,5S*)-3-chloro-5-(3-fluoro-2,6-dimethoxyphenyl)-1-(4-(trifluoromethoxy)benzyl)pyrrolidin-2-one] | 739 nM |
| CCOc1c(F)cccc1[C@@H]1C[C@H](Cl)C(=O)N1Cc1ccc(OC(F)(F)F)cc1 (racemic) [Example 329, rac-(3S*,5S*)-3-chloro-5-(2-ethoxy-3-fluorophenyl)-1-(4-(trifluoromethoxy)benzyl)pyrrolidin-2-one] | 885 nM |
| CCOc1ccc(F)c(F)c1[C@@H]1C[C@H](Cl)C(=O)N1Cc1ccc(OC(F)(F)F)cc1 (racemic) [Example 339, rac-(3S*,5S*)-3-chloro-5-(6-ethoxy-2,3-difluorophenyl)-1-(4-(trifluoromethoxy)benzyl)pyrrolidin-2-one] | 816 nM |
| CCOc1ccc(F)c(F)c1[C@@H]1C[C@@H](Cl)C(=O)N1Cc1ccc(OC(F)(F)F)cc1 (racemic) [Example 346, rac-(3R*,5S*)-3-chloro-5-(6-ethoxy-2,3-difluorophenyl)-1-(4-(trifluoromethoxy)benzyl)pyrrolidin-2-one] | 2850 nM |
| COc1cccc(OC)c1C1CCCC(=O)N1Cc1ccc2ccccc2n1 (stereo not shown) [Example 4, 6-(2,6-dimethoxyphenyl)-1-(quinolin-2-ylmethyl)piperidin-2-one] | 174 nM |
| COc1cccc(OC)c1C1CCCC(=O)N1Cc1ccc2ccccc2n1 (stereo not shown) [Example 4a, 6-(2,6-dimethoxyphenyl)-1-(quinolin-2-ylmethyl)piperidin-2-one] | 16 nM |

Now from value to molecule:

| IC50 | SMILES |
| --- | --- |
| 227 nM | COc1ccc(F)c(OC)c1[C@@H]1C[C@H](Cl)C(=O)N1Cc1ccc(OC(F)(F)F)cc1 (racemic) [Example 330, rac-(3S*,5S*)-3-chloro-5-(3-fluoro-2,6-dimethoxyphenyl)-1-(4-(trifluoromethoxy)benzyl)pyrrolidin-2-one] |
| 1800 nM | CCOc1cc(F)ccc1[C@@H]1C[C@H](F)C(=O)N1Cc1ccc(OC(F)(F)F)cc1 (racemic) [Example 344, rac-(3S*,5S*)-5-(2-ethoxy-4-fluorophenyl)-3-fluoro-1-(4-(trifluoromethoxy)benzyl)pyrrolidin-2-one] |
| 23 nM | COc1cccc(OC)c1[C@@H]1C[C@@H](F)C(=O)N1Cc1ccc2oc3ccccc3c2c1 (racemic) [Example 368, rac-(3R*,5S*)-1-(dibenzo[b,d]furan-2-ylmethyl)-5-(2,6-dimethoxyphenyl)-3-fluoropyrrolidin-2-one] |
| 678 nM | CC(C)Oc1cccc(F)c1[C@@H]1C[C@H](F)C(=O)N1Cc1ccc(OC(F)(F)F)cc1 (racemic) [Example 407, rac-(3S*,5S*)-3-fluoro-5-(2-fluoro-6-isopropoxyphenyl)-1-(4-(trifluoromethoxy)benzyl)pyrrolidin-2-one] |
| 323 nM | CC(C)Oc1cccc(F)c1[C@@H]1C[C@H](Cl)C(=O)N1Cc1ccc(OC(F)(F)F)cc1 (racemic) [Example 409, rac-(3S*,5S*)-3-chloro-5-(2-fluoro-6-isopropoxyphenyl)-1-(4-(trifluoromethoxy)benzyl)pyrrolidin-2-one] |
| 1230 nM | CCOc1cccc(Cl)c1[C@@H]1C[C@@H](O)C(=O)N1Cc1ccc(OC(F)(F)F)cc1 (racemic) [Example 427, rac-(3R*,5S*)-5-(2-chloro-6-ethoxyphenyl)-3-hydroxy-1-(4-(trifluoromethoxy)benzyl)pyrrolidin-2-one] |
| 5360 nM | COc1cccc(F)c1[C@@H]1C[C@@H](O)C(=O)N1Cc1cccc(OC(F)(F)F)c1 (racemic) [Example 430, rac-(3R*,5S*)-5-(2-fluoro-6-methoxyphenyl)-3-hydroxy-1-(3-(trifluoromethoxy)benzyl)pyrrolidin-2-one] |
| 724 nM | CCOc1cccc(F)c1[C@@H]1C[C@H](F)C(=O)N1Cc1ccc(OC(F)(F)F)c(Cl)c1 (racemic) [Example 461, rac-(3S*,5S*)-1-(3-chloro-4-(trifluoromethoxy)benzyl)-5-(2-ethoxy-6-fluorophenyl)-3-fluoropyrrolidin-2-one] |
| 405 nM | CCOc1cccc(F)c1[C@@H]1C[C@H](Cl)C(=O)N1Cc1ccc(OC(F)(F)F)c(Cl)c1 (racemic) [Example 462, rac-(3S*,5S*)-3-chloro-1-(3-chloro-4-(trifluoromethoxy)benzyl)-5-(2-ethoxy-6-fluorophenyl)pyrrolidin-2-one] |

Same assay, conditions: CHO cells, 3 nM orexin-A, compound incubation time of 10 min; marked values are geometric means of n = 2-6; read-out: IC50 OX1

| SMILES | IC50 |
| --- | --- |
| COc1cccc(F)c1[C@@H]1C[C@H](O)C(=O)N1Cc1ccc(OC(F)(F)F)cc1 (racemic) [Example 265, rac-(3S*,5S*)-5-(2-fluoro-6-methoxyphenyl)-3-hydroxy-1-(4-(trifluoromethoxy)benzyl)pyrrolidin-2-one] | 730 nM |
